In ChEMBL document CHEMBL5380808, “Design, Synthesis, and Biological Activity of Marinacarboline Analogues as STAT3 Pathway Inhibitors for Docetaxel-Resistant Triple-Negative Breast Cancer” (J Med Chem, 2023):
Calls of active or inactive are those of the source. The calls are words filed in the database; no cut-off is given here.

Legend:
[1] = Synergistic antiproliferative activity against docetaxel-resistant human MDA-MB-231-DTR cells assessed as combination index at 2 uM incubated for 72 hrs in presence of 8 uM of N-(2-(1H-Indol-3-yl)ethyl)-1-(4-bromobenzoyl)-9H-pyrido(3,4-b)indole-3-carboxamide by Chou-Talalay method; type: functional
[2] = test system: MDA-MB-231; assay: Antiproliferative activity against SiRNA mediated STAT3 knockdown docetaxel-resistant human MDA-MB-231-DTR cells assessed as restoration of drug sensitivity by measuring cell viability at 0.5 to 4 uM incubated for 72 hrs by MTT assay; type: functional, cell-based; conditions: dose 0.5-4 µM
[3] = Synergistic antiproliferative activity against docetaxel-resistant human MDA-MB-231-DTR cells assessed as combination index at 4 uM incubated for 72 hrs in presence of 8 uM of N-(2-(1H-Indol-3-yl)ethyl)-1-(4-bromobenzoyl)-9H-pyrido(3,4-b)indole-3-carboxamide by Chou-Talalay method; type: functional
[4] = Synergistic antiproliferative activity against docetaxel-resistant human MDA-MB-231-DTR cells assessed as combination index at 4 uM incubated for 72 hrs in presence of 2 uM of N-(2-(1H-Indol-3-yl)ethyl)-1-(4-bromobenzoyl)-9H-pyrido(3,4-b)indole-3-carboxamide by Chou-Talalay method; type: functional
[5] = Antiproliferative activity against docetaxel-resistant human MDA-MB-231-DTR cells assessed as reduction in cell viability incubated for 72 hrs by sulforhodamine B assay; type: functional, cell-based; conditions: MDA-MB-231, 72 h
[6] = Synergistic antiproliferative activity against docetaxel-resistant human MDA-MB-231-DTR cells assessed as combination index at 1 uM incubated for 72 hrs in presence of 4 uM of N-(2-(1H-Indol-3-yl)ethyl)-1-(4-bromobenzoyl)-9H-pyrido(3,4-b)indole-3-carboxamide by Chou-Talalay method; type: functional
[7] = Synergistic antiproliferative activity against docetaxel-resistant human MDA-MB-231-DTR cells assessed as combination index at 4 uM incubated for 72 hrs in presence of 4 uM of N-(2-(1H-Indol-3-yl)ethyl)-1-(4-bromobenzoyl)-9H-pyrido(3,4-b)indole-3-carboxamide by Chou-Talalay method; type: functional
[8] = test system: MDA-MB-231; assay: Antitumor activity against docetaxel-resistant human MDA-MB-231-DTR cells xenografted in BALB/c mouse assessed as tumor growth inhibition at 5 mg/kg, ip daily for 12 days; type: functional, organism-based; conditions: time 12.0 day
[9] = Synergistic antiproliferative activity against docetaxel-resistant human MDA-MB-231-DTR cells assessed as combination index at 2 uM incubated for 72 hrs in presence of 2 uM of N-(2-(1H-Indol-3-yl)ethyl)-1-(4-bromobenzoyl)-9H-pyrido(3,4-b)indole-3-carboxamide by Chou-Talalay method; type: functional
[10] = test system: MDA-MB-231; assay: Antiproliferative activity against human MDA-MB-231 cells assessed as reduction in cell viability incubated for 72 hrs by MTT assay; type: functional, cell-based; conditions: MDA-MB-231, 72 h
[11] = test system: MDA-MB-231; assay: Antitumor activity against docetaxel-resistant human MDA-MB-231-DTR cells xenografted in BALB/c mouse assessed as reduction in tumor volume at 5 mg/kg, ip daily for 12 days in presence of N-(2-(1H-Indol-3-yl)ethyl)-1-(4-bromobenzoyl)-9H-pyrido(3,4-b)indole-3-carboxamide; type: functional, organism-based; conditions: time 12.0 day
[12] = Synergistic antiproliferative activity against docetaxel-resistant human MDA-MB-231-DTR cells assessed as combination index at 1 uM incubated for 72 hrs in presence of 8 uM of N-(2-(1H-Indol-3-yl)ethyl)-1-(4-bromobenzoyl)-9H-pyrido(3,4-b)indole-3-carboxamide by Chou-Talalay method; type: functional
[13] = Fold resistance, ratio of IC50 for antiproliferative activity against docetaxel-resistant human MDA-MB-231-DTR cells to IC50 for antiproliferative activity against human MDA-MB-231 cells; type: functional
[14] = Antiproliferative activity against docetaxel-resistant human MDA-MB-231-DTR cells assessed as reduction in cell viability incubated for 72 hrs by MTT assay; type: functional, cell-based; conditions: MDA-MB-231, 72 h
[15] = Synergistic antiproliferative activity against docetaxel-resistant human MDA-MB-231-DTR cells assessed as combination index at 1 uM incubated for 72 hrs in presence of 2 uM of N-(2-(1H-Indol-3-yl)ethyl)-1-(4-bromobenzoyl)-9H-pyrido(3,4-b)indole-3-carboxamide by Chou-Talalay method; type: functional
[16] = test system: MDA-MB-231; assay: Antitumor activity against docetaxel-resistant human MDA-MB-231-DTR cells xenografted in BALB/c mouse assessed as reduction in tumor weight at 5 mg/kg, ip daily for 12 days in presence of N-(2-(1H-Indol-3-yl)ethyl)-1-(4-bromobenzoyl)-9H-pyrido(3,4-b)indole-3-carboxamide; type: functional, organism-based; conditions: time 12.0 day
[17] = Synergistic antiproliferative activity against docetaxel-resistant human MDA-MB-231-DTR cells assessed as combination index at 2 uM incubated for 72 hrs in presence of 4 uM of N-(2-(1H-Indol-3-yl)ethyl)-1-(4-bromobenzoyl)-9H-pyrido(3,4-b)indole-3-carboxamide by Chou-Talalay method; type: functional
[18] = test system: MDA-MB-231; assay: Antiproliferative activity against human MDA-MB-231 cells transfected with STAT3 plasmid to overexpress STAT3 assessed as effect on cell viability at 10 to 80 nM incubated for 72 hrs by MTT assay; type: functional, cell-based; conditions: dose 10-80 nM

For `CC(=O)O[C@@]12CO[C@@H]1C[C@H](O)[C@@]1(C)C(=O)[C@H](O)C3=C(C)[C@@H](OC(=O)[C@H](O)[C@@H](NC(=O)OC(C)(C)C)c4ccccc4)C[C@@](O)([C@@H](OC(=O)c4ccccc4)[C@H]21)C3(C)C` [DOCETAXEL ANHYDROUS], the CI [1] was 0.45, the Activity [2] was “Active” and the CI [3] was 0.32. It also gave a CI [4] of 0.32, an IC50 [5] of 1980 nM and a CI [6] of 0.38. The CI [7] was 0.37, the Activity [8] was “inactive” and the CI [9] was 0.23. For the same molecule, the IC50 [10] was 20 nM, the Activity [11] was “Active” and the CI [12] was 0.66. The “Ratio IC50” value [13] was 103.5, the IC50 [14] was 4680 nM and the CI [15] was 0.26. For the same molecule, the Activity [16] was “Active”, the CI [17] was 0.53 and the Activity [18] was “inactive”.
